In patent publication US20110207807A1, “NEW USE FOR HOMOISOFLAVONE OR A SALT THEREOF” (Catholic University Industry Academy Cooperation Foundation, priority 2008, published 2011):

Assays:
leukotriene B4 = assay: Release of leukotriene B4 induced by PMA and A23187 in HMC-1 (enzyme immunoassay); type: cell-based, human
Description: (§1) Phorbol 12-myristate 13-acetate and A23187 lead to degranulation of human mast cells (HMC), causing the mast cells to release not only their histamine or serotonin but also newly produced inflammatory factors such as pro-inflammatory cytokines, prostaglandins and leukotrienes. It was investigated whether homoisoflavanone has anti-inflammatory effect in mast cells as in Examples 4 and 5. In order to investigate the effect of homoisoflavanone on the release of leukotriene induced by phorbol 12-myristate 13-acetate and A23187 in HMC-1, 1×10^6 HMC-1 cells were inoculated on a 100-mm culture dish and cultured in Iscove's modified Dulbecco's medium (IMDM, GIBCO) containing 10% FBS for 48 hours. Then, after treating with homoisoflavanone at 2 μg/mL or with mizolastine at 10 μg/mL for comparison for 1 hour, the cells were treated with 50 nM phorbol 12-myristate 13-acetate and 1 μM A23187 to induce release of leukotriene, and then further cultured for 21 hours. Then, the supernatant was collected and the quantity of released leukotriene B4 and C4 was measured using a leukotriene B4, C4 enzyme immunoassay kit (Sapphire Bioscience, Australia).

leukotriene C4 = assay: Release of leukotriene C4 induced by PMA and A23187 in HMC-1 (enzyme immunoassay); type: cell-based; details: Homo sapiens, HMC1; HMC-1, homoisoflavanone 2 μg/mL or mizolastine 10 μg/mL, 50 nM PMA + 1 μM A23187, 21 hours (FIG. 6b)
Description: as §1

leukotriene B4 release when treated alone, versus non-treated group (leukotriene B4; HMC-1, homoisoflavanone 2 μg/mL or mizolastine 10 μg/mL alone, without PMA/A23187 (FIG. 6a)): no appreciable difference
Compound: CN(c1nccc(=O)[nH]1)C1CCN(c2nc3ccccc3n2Cc2ccc(F)cc2)CC1 [mizolastine, reference compound]
inhibition at 10 µg/mL (leukotriene B4; Homo sapiens, HMC1, HMC-1, homoisoflavanone 2 μg/mL or mizolastine 10 μg/mL, 50 nM PMA + 1 μM A23187, 21 hours (FIG. 6a)): 20%
inhibition at 10 µg/mL (leukotriene C4): ≥ 90%
